Patent publication US8663679B2, “Compositions for improving breast health in women” (Abbott Laboratories, priority 2004, dated 2014)

What was measured:
[1] = system: MCF-7 human breast adenocarcinoma cells; assay: Cell proliferation assay (ViaLight Plus, ATP); type: cell-based; details: MCF7, 72 hours
Experimental: (§1) MCF-7 human breast adenocarcinoma cells (ATCC) are maintained in Eagle's Minimal Essential Medium supplemented with 10% FBS (Gibco-BRL), 1% Penicillin-Streptomycin-Glutamine and 10 nM 17β Estradiol, (Sigma). MCF-10A cells, human fibrocystic mammary gland epithelial cells (ATCC) and HMEC, human mammary gland epithelial cells (Cambrex) are maintained in mammary epithelial complete growth medium (MEGM) containing the Bullet Kit (Cambrex Bio Sciences).
Cells are seeded on 24-well plates at 20-25×10^3 cells/well in 0.4-0.5 ml of their respective media. […] Cells with no treatment are the controls. Plates are incubated at 37° C. for 72 hours. Cell proliferation is measured using ViaLight Plus Cell Proliferation and Cytotoxicity BioAssay Kit by quantifying the amount of ATP released from the cells according to manufacture's protocol.
Cell culture plates are warmed up to room temperature for 5 minutes and 200 μl of cell lysis reagent is added to each well. After incubation at room temperature for 10 minutes with intermediate swirling of the plate, 100 μl of the sample from each well is loaded in triplicate in a white 96-well microtiter plate, Dynex Microlite 1+, for vialight assay. The ATP monitoring reagent (AMR) is reconstituted in assay buffer and allowed to equilibrate for 15 minutes at room temperature.
The luminometer and associated WinGlow software program are set up and primed with reconstituted AMR. The plate is placed in the luminometer and 100 μl of reconstituted AMR is dispensed per well. The luminometer is programmed to take one second integrated reading of each appropriate well. The plates are incubated for 2 minutes at room temperature in the luminometer and one second integrated reading of each appropriate well is initiated.
Average RLU (relative luciferase unit) values for each set of triplicate wells, using Winglow software and Microsoft Excel, is calculated and graphed. Effects of various treatments are calculated by plotting the percent of inhibition of cell proliferation versus the concentration of treatment. Percent inhibition of cell proliferation is calculated using the formula: […]

[2] = system: HMEC, human mammary gland epithelial cells; details: 72 hours
Experimental: as §1
Cells are seeded on 24-well plates at 20-25×10^3 cells/well in 0.4-0.5 ml of their respective media. […] Cells with no treatment are the controls. Plates are incubated at 37° C. for 72 hours. Cell proliferation is measured using ViaLight Plus Cell Proliferation and Cytotoxicity BioAssay Kit by quantifying the amount of ATP released from the cells according to manufacture's protocol. […]
The luminometer and associated WinGlow software program are set up and primed with reconstituted AMR. […] The luminometer is programmed to take one second integrated reading of each appropriate well. The plates are incubated for 2 minutes at room temperature in the luminometer and one second integrated reading of each appropriate well is initiated.
Average RLU (relative luciferase unit) values for each set of triplicate wells, using Winglow software and Microsoft Excel, is calculated and graphed. […]

[3] = system: MCF-10A cells, human fibrocystic mammary gland epithelial cells; assay: Cell proliferation assay (ViaLight Plus, ATP); type: cell-based; details: MCF10A, 72 hours
Experimental: Cells with no treatment are the controls. Plates are incubated at 37° C. for 72 hours.

MCF7 cells = details: MCF7, GLA 0, 50, 100 μM, 48 hours
Experimental: (§2) Cells are grown in T75 flasks up to 70-80% confluence before being treated with desired fatty acids conjugated with BSA for 48 hours at 37° C. at various concentrations (0, 50, 100 μM). After incubation, the cells are trypsinized from the flask and the cell suspensions are pooled and collected in 50 ml tubes. Each cell type and each treatment is done in duplicate. Cell suspensions are then centrifuged at 1000 rpm for 10 minutes each. Supernatants are discarded and the pellets suspended in phosphate buffered saline. The cells are washed twice with 10 ml of PBS (Phosphate buffer saline) at each step and centrifuged. The pellets are re-suspended in 10 ml of PBS and counted and the cell numbers are normalized for the experiment. The cell suspension is centrifuged again and the pellets stored at −80° C. until lipid extraction is performed.
(§3) Briefly, each cell pellet from a 50 ml culture is vortexed with 6 ml of methanol, followed by the addition of 12 ml of chloroform and 100 μg of tridecanoin (as internal standard). The mixture is incubated at 4° C. overnight. The chloroform layer is extracted and filtered through a Whatman filter with one gram of anhydrous sodium sulfate to remove particulates and residual water. Organic solvents are evaporated to dryness at 40° C. under a stream of nitrogen. […]

MCF10A cells = details: GLA 0, 50, 100 μM, 48 hours
Experimental: as §2, §3

thyroid follicular cells = details: well known; cited from earlier work

Compound	anti-proliferative activity on breast cancer cells [1]	anti-proliferative activity on normal breast cells [2]	anti-proliferative activity on fibrocystic cells [3]	production of arachidonic acid (MCF7 cells)	production of arachidonic acid (MCF10A cells)	proliferation of thyroid follicular cells (thyroid follicular cells)
O=[Se](=O)([O-])[O-].[Na+].[Na+] [Selenium, sodium selenate]	anti-proliferative activity	no relative effect	anti-proliferative activity	–	–	–
CCCCC/C=C\C/C=C\C/C=C\CCCCC(=O)O [GLA, (Z,Z,Z)-6,9,12-octadecatrienoic acid]	no effect	no effect	significant anti-proliferative activity	increased production of arachidonic acid	increased production of arachidonic acid	–
CCCCC/C=C\C/C=C\C/C=C\CC(I)C1CCCC(=O)O1 (stereo not drawn) [iodo-arachidonate, 6-iodo-5-hydroxy-eicosatrienoic acid-delta-lactone]	significant inhibitory effect	–	–	–	–	–
[I-].[K+] [Iodine, potassium iodide]	does not show any anti-proliferative effect	–	does not show any anti-proliferative effect	–	–	inhibits proliferation
